One compound from patent US20240299345A1, “GINKGOLIDE B AND ITS DERIVATIVES FOR INHIBITING AND/OR REVERSING AGING” (CHINA MEDICAL UNIVERSITY, priority 2023, published 2024) can be followed below.

The structures appear in SMILES notation.

For data set [1], the system named is 20-month-old aged female C57BL/6 mice.
Experimental: Animals were kept up to five per cage and were randomly assigned to control and experimental groups in all experiments. […] For the short-term experiment, 3-(young), 6-(adult) and 20-month-old (aged) female C57BL/6 mice were administered 12 mg/kg body weight GB (#G6910, Sigma-Aldrich, St. Louis, MO, USA) or vehicle daily by oral gavage for two months.
The noninvasive 31-item frailty index established by Whitehead et al. was used to evaluate frailty in mice (Whitehead, J. C. et al. A clinical frailty index in aging mice: comparisons with frailty index data in humans. J Gerontol A Biol Sci Med Sci 69, 621-632, doi:10.1093/gerona/glt136 (2014)). Whole assessments were conducted by blind investigators as possible. The scored items represent the aging-related deteriorations based on the criteria in clinical practice, consisting of the integument, musculoskeletal system, vestibulocochlear and auditory systems, ocular and nasal systems, digestive system, urogenital system, respiratory system, signs of discomfort, body weight and body surface temperature. Surface body temperature was determined by an infrared thermometer (Thermo Distance, Terraillon, Croissy-sur-seine, France), and grip strength was measured by the standard equipment described in the later section. The other subjective observations were scored by researchers. The scores 0, 0.5 and 1 indicated no sign of frailty, moderate defect and severe defect, respectively. For the body temperature, grip strength and body weight scoring, the average and standard deviation (STDEV) values were used as a baseline. A change within one STDEV is scored as a 0, a decreased change over one STDEV but lower than two STDEV was scored as a 0.5 and a change more than two STDEV was scored as a 1.
For data set [2] the test system is unchanged. Kind of data set: Metabolic health in aged mice (body weight, composition, intake, lipids, IPGTT, IPITT, gene expression). The class given is in vivo, mouse. How it is done:
For the food and water intake measurement, mice were divided into individual animal cages individually for 3 days for stabilizing the animals, and then daily consumption was recorded. The values were calculated by adjusting for body weight.
Body composition was measured by Minispec LF50 TD-NMR (Bruker, MA, USA) based on nuclear magnetic resonance methods. Briefly, mice were anesthetized for the duration of the procedure by 3% isoflurane (Zoctis, London, UK) and placed in the scanning chamber in the prone position, with the limbs and tail stretched away from the body. The analysis would be conducted by default software per manufacturer's protocol. The vascular networks […] were quantified by in vivo micro-computed tomography (U-CT, Milabs, Netherlands). Briefly, mice intravenously received 150 μL ExiTron™ nano 12000 (#130-095-698, Miltonic Biotec GmbH, Bergisch Gladbach, Germany), and then mice were anesthetized with isoflurane before being positioned on the scanning chamber. After scanning, the blood vessels were analyzed by a curved multiplanar reconstruction algorithm by using Osirix software (Bernex, Switzerland).
Mice fasted 16 hours and 2 hours before performing an IPGT test and IPIT test, respectively. IPGTT was performed by intraperitoneal injection of fasted mice with 1% body weight of sterile glucose/PBS (20% weight/volume). IPITT was performed by intraperitoneal injection of fasted mice with insulin (0.75 unit/kg body weight) (#12585014, Gibco). Blood glucose levels were measured at indicative timepoints after injection by a blood glucometer (countour plus, Ascensia Diabetes Care, Hong Kong).
Serum was collected by cardiac puncture upon sacrifice.
RNAs were purified by using the TRIzol® (#15596018, Invitrogen) and chloroform method (#C7559, Sigma-Aldrich) and reversed transcribed using High-Capacity cDNA Reverse Transcription Kit (#4368814, Applied Biosystems, Foster City, CA, USA). The quantitative RT-PCR was conducted with universal probe system (Roche Life Science, Indianapolis, IN, USA) by using a QuantStudio™ 7 Flex Real-Time PCR System (Applied Biosystems) and was normalized by the expression of GAPDH.

Where [3] appears, read: of 18 measurements increased by aging.
Where [4] appears, read: aged mice, GB 2 months, p<0.0001.
[5] abbreviates: among the three groups (young, vehicle-aged, GB-aged).

For the compound `CC1C(=O)OC2C(O)C34C5CC(C(C)(C)C)C36C(OC(=O)C6O)OC4(C(=O)O5)C12O` (stereo not shown) [GB, Ginkgolide B], the “reduction of aging-related frailty index score” value in data set [1] (aged mice, GB 2 months vs vehicle-aged, p<0.0001) is 63.1%. In data set [1] (aged mice, GB 2 months, mean±SD, vehicle-aged 0.43±0.13, young 0.01±0.01), the “average frailty index score” value turned out to be 0.16±0.05. The deterioration of frailty entry in data set [1] (mouse, in vivo) is “did not observe any deterioration”. In addition, in data set [1] (setting [3]), the “number of aging-related frailty measurements modestly attenuated” value is recorded as 3 and the “number of aging-related frailty measurements reversed” value stood at 13. The “food and water consumptions” value in data set [2] (aged mice, GB 2 months vs vehicle, p=0.5127 and 0.9368) was “not improved”. For the same compound, in data set [2] (setting [4]), the lean mass entry is listed as “increase” and the whole-body fat mass entry is listed as “decrease”. The “expression of Pkm in aged skeletal muscle” value in data set [2] (aged mice, GB 2 months, p<0.0001, not in aged liver) was “restored”. In addition, in data set [2] (aged mice, GB 2 months, p=0.0035, not in aged liver), the “expression of Glut4 in aged skeletal muscle” value is on record as “restored”. For the same compound, the “aging-related alteration in serum total cholesterol level” value in data set [2] (aged mice, GB 2 months, p=0.0284) is recorded as “reversed”. Besides, in data set [2] (aged mice, GB 2 months, p=0.0322 in AUC), the “aging-related glucose intolerance (IPGTT)” value was “improved”. Also, in data set [2] (aged mice, GB 2 months, p=0.0424), the “aging-related alteration in serum triglyceride level” value was “reversed”. The compound further yielded a body weight reduction in data set [2] (aged mice, post-GB administration 2 months, p=0.0123) of 6%. Moreover, in data set [2] (setting [5]), the fasting blood glucose entry is given as “no significant difference” and the “insulin sensitivity (IPITT)” value was “no difference”.
